# Target: T1, human NaV1.6 (hNaV1.6) (Homo sapiens, UniProt Q9UQD0)
# T1 construct: expressed in transfected cells; host or cells: HEK-293
# Assay: Modulation of late sodium current (INaL) at hNaV1.6, PatchXpress electrophysiology
# Assay type: cell-based
# Conditions: HEK293, HEK-293 cells expressing recombinant human NaV 1.6, late current evoked by 300 nM ATX-II, read-out: NaV 1.6 Assay Data (percent inhibition of INaL at hNaV1.6)
# Protocol: Functional characterization of exemplary compounds to modulate INaL expressed by the NaV1.6 voltage-gated sodium channel was accomplished using the PatchXpress™ high throughput electrophysiology platform (Molecular Devices, Sunnyvale, CA). HEK-293 cells expressing recombinant, human NaV1.6 (hNaV1.6) were grown in DMEM/high-glucose Dulbecco's modified, 10% FBS, 2 mM sodium pyruvate, 10 mM HEPES and 400 μg/mL G418. Cells were grown to 50%-80% confluency prior to harvesting. Trypsinized cells were washed, allowed to recover for 1 hour and then resuspended in extracellular recording solution at a concentration of 1×10^6 cells/ml. The onboard liquid handling facility of the PatchXpress was used for dispensing cells and applying test compounds. NaV late currents were evoked by the application of 300 nM ATX-II. INaL was evoked by depolarizing pulses to 0 mV for 200 ms from a non-inactivating holding potential (e.g., −120 mV) at a frequency of 0.1 Hz. INaL amplitude and stability were determined by analyzing the mean current amplitude over the final 20 ms of the test pulse. Following steady state block with exemplary compounds (e.g., as described herein), a Na+ free solution containing an impermeant cation (e.g., Choline or NDMG) was added to confirm the identity of the sodium current. Percent steady-state inhibition of INaL was calculated as: […], where INaL_compound and INaL_control represent INaL recorded in the presence or absence of compound, respectively.
# Results from this assay relating to percent inhibition of INaL at hNaV1.6 (measured using a procedure similar to described above but using HEK-293 cells expressing recombinant, human NaV 1.6 (h NaV 1.6) at 1 μM are summarized in Table 1 below. In this table, “A” indicates inhibition of less than 30%; “B” indicates inhibition of between about 30% to about 70%; and “C” indicates inhibition of greater than 70%. “N/A” indicates not available.
# T1 sequence (Q9UQD0 whole entry): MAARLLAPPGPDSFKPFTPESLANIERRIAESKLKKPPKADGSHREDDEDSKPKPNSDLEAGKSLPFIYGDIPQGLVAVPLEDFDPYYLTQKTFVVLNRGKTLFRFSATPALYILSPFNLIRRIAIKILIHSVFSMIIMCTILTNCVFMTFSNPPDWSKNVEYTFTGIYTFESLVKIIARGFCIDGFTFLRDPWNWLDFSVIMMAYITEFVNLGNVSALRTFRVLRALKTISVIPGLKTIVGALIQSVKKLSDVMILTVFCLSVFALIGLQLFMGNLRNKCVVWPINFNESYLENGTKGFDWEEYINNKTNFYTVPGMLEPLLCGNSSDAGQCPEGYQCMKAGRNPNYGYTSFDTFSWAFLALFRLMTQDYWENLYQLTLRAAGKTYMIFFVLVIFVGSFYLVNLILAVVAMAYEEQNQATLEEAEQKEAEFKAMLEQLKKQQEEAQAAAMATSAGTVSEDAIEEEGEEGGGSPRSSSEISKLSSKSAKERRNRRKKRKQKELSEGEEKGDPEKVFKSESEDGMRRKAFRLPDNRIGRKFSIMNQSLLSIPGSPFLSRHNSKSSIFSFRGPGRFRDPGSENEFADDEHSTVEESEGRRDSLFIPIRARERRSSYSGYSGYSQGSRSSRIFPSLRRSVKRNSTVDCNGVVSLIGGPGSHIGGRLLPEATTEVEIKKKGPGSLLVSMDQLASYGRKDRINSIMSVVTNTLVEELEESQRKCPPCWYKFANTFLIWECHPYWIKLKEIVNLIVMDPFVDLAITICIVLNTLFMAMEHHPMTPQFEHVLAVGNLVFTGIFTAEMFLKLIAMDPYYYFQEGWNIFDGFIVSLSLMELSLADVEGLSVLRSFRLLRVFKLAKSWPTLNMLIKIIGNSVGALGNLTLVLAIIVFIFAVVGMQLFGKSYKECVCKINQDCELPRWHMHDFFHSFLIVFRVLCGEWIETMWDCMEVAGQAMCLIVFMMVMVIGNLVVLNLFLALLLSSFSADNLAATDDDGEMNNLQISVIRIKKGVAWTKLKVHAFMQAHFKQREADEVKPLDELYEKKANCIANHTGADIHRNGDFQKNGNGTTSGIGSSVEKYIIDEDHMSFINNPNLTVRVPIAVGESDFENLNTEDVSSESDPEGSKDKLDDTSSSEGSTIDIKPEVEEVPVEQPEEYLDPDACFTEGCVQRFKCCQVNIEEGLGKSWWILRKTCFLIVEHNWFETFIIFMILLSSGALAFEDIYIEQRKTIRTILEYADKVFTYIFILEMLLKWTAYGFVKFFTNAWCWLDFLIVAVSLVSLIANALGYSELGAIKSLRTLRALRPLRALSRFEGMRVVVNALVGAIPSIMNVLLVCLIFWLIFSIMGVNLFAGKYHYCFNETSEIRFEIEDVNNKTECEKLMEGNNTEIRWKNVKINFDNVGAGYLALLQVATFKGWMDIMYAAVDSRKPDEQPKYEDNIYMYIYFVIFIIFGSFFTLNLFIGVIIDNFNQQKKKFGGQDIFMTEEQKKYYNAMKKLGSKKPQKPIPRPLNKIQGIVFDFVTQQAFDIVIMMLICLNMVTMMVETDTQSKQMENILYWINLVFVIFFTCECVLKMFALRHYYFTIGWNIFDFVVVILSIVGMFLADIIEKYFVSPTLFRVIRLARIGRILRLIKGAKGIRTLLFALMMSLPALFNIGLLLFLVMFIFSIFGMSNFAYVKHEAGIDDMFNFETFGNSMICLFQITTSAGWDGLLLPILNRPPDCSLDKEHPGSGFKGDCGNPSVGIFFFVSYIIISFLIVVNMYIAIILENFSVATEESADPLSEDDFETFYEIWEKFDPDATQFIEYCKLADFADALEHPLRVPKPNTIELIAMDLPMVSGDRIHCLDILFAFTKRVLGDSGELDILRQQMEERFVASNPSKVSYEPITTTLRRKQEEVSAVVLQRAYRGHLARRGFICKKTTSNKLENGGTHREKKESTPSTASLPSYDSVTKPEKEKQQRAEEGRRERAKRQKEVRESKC
row,Compound,inhibition at 1 µM
1,"CCO[C@H](C)c1nnc2cnc(-c3ccc(OC4(C(F)(F)F)CCC4)nc3)cn12 [Compound I-20, (R)-3-(1-ethoxyethyl)-6-(6-(1-(trifluoromethyl)cyclobutoxy)pyridin-3-yl)-[1,2,4]triazolo[4,3-a]pyrazine]",30 to 70%
2,"COC1(c2nnc3cnc(-c4cnc(OCC(F)(F)F)c(F)c4)cn23)CC1 [Compound II-1, 6-(5-fluoro-6-(2,2,2-trifluoroethoxy)pyridin-3-yl)-3-(1-methoxycyclopropyl)-[1,2,4]triazolo[4,3-a]pyrazine]",< 30%
3,"COC1(c2nnc3cnc(-c4cnc(O[C@H](C)C(F)(F)F)c(F)c4)cn23)CC1 [Compound II-2, (R)-6-(5-fluoro-6-((1,1,1-trifluoropropan-2-yl)oxy)pyridin-3-yl)-3-(1-methoxycyclopropyl)-[1,2,4]triazolo[4,3-a]pyrazine]",< 30%
4,"COC1(c2nnc3cnc(-c4cnc(O[C@@H](C)C(F)(F)F)c(F)c4)cn23)CC1 [Compound II-3, (S)-6-(5-fluoro-6-((1,1,1-trifluoropropan-2-yl)oxy)pyridin-3-yl)-3-(1-methoxycyclopropyl)-[1,2,4]triazolo[4,3-a]pyrazine]",30 to 70%
5,"COC(C)(C)c1nnc2cnc(-c3cnc(OCC(F)(F)F)c(F)c3)cn12 [Compound II-4, 6-(5-fluoro-6-(2,2,2-trifluoroethoxy)pyridin-3-yl)-3-(2-methoxypropan-2-yl)-[1,2,4]triazolo[4,3-a]pyrazine]",< 30%
6,"COC(C)(C)c1nnc2cnc(-c3ccc(OCC(F)(F)F)nc3)cn12 [Compound II-5, 3-(2-methoxypropan-2-yl)-6-(6-(2,2,2-trifluoroethoxy)pyridin-3-yl)-[1,2,4]triazolo[4,3-a]pyrazine]",< 30%
7,"C[C@H](Oc1ccc(-c2cn3c(C(F)(F)Cl)nnc3cn2)cn1)C(F)(F)F [Compound II-7, (S)-3-(chlorodifluoromethyl)-6-(6-((1,1,1-trifluoropropan-2-yl)oxy)pyridin-3-yl)-[1,2,4]triazolo[4,3-a]pyrazine]",30 to 70%
8,"COC(C)(C)c1nnc2cnc(-c3cnc(O[C@H](C)C(F)(F)F)c(F)c3)cn12 [Compound II-8, (R)-6-(5-fluoro-6-((1,1,1-trifluoropropan-2-yl)oxy)pyridin-3-yl)-3-(2-methoxypropan-2-yl)-[1,2,4]triazolo[4,3-a]pyrazine]",30 to 70%
9,"COC(C)(C)c1nnc2cnc(-c3cnc(O[C@@H](C)C(F)(F)F)c(F)c3)cn12 [Compound II-9, (S)-6-(5-fluoro-6-((1,1,1-trifluoropropan-2-yl)oxy)pyridin-3-yl)-3-(2-methoxypropan-2-yl)-[1,2,4]triazolo[4,3-a]pyrazine]",30 to 70%
10,"COC(C)(C)c1nnc2cnc(-c3cnc(OC(C)(C)C(F)(F)F)c(F)c3)cn12 [Compound II-10, 6-[5-fluoro-6-(2,2,2-trifluoro-1,1-dimethyl-ethoxy)-3-pyridyl]-3-(1-methoxy-1-methyl-ethyl)-[1,2,4]triazolo[4,3-a]pyrazine]",> 70%
11,"CCOC(C)(C)c1nnc2cnc(-c3cnc(OC(C)(C)C(F)(F)F)c(F)c3)cn12 [Compound II-11, 3-(2-ethoxypropan-2-yl)-6-(5-fluoro-6-((1,1,1-trifluoro-2-methylpropan-2-yl)oxy)pyridin-3-yl)-[1,2,4]triazolo[4,3-a]pyrazine]",30 to 70%
12,"COC(C)(C)c1nnc2cnc(-c3cnc(OC4(C(F)(F)F)CCC4)c(F)c3)cn12 [Compound II-12, 6-(5-fluoro-6-(1-(trifluoromethyl)cyclobutoxy)pyridin-3-yl)-3-(2-methoxypropan-2-yl)-[1,2,4]triazolo[4,3-a]pyrazine]",> 70%
13,"COC(C)(C)c1nnc2cnc(-c3ccc(OC4(C(F)(F)F)CCC4)nc3)cn12 [Compound II-13, 3-(1-methoxy-1-methyl-ethyl)-6-[6-[1-(trifluoromethyl)cyclobutoxy]-3-pyridyl]-[1,2,4]triazolo[4,3-a]pyrazine]",30 to 70%
14,"COC(C)(C)c1nnc2cnc(-c3ccc(OC(C)(C)C(F)(F)F)nc3)cn12 [Compound II-14, 3-(1-methoxy-1-methyl-ethyl)-6-[6-(2,2,2-trifluoro-1,1-dimethyl-ethoxy)-3-pyridyl]-[1,2,4]triazolo[4,3-a]pyrazine]",30 to 70%
15,"CCOC(C)(C)c1nnc2cnc(-c3ccc(OC(C)(C)C(F)(F)F)nc3)cn12 [Compound II-15, 3-(2-ethoxypropan-2-yl)-6-(6-((1,1,1-trifluoro-2-methylpropan-2-yl)oxy)pyridin-3-yl)-[1,2,4]triazolo[4,3-a]pyrazine]",30 to 70%
16,"FC(F)(F)Oc1ccc(-c2cn3c(C(F)(F)F)nnc3cn2)c(C2CC2)c1 [Compound III-1, 6-[2-cyclopropyl-4-(trifluoromethoxy)phenyl]-3-(trifluoromethyl)-[1,2,4]triazolo[4,3-a]pyrazine]",> 70%
17,"CCOC(F)(F)c1nnc2cnc(-c3ccc(OC(F)(F)F)cc3C3CC3)cn12 [Compound III-2, 6-[2-cyclopropyl-4-(trifluoromethoxy)phenyl]-3-[ethoxy(difluoro)methyl]-[1,2,4]triazolo[4,3-a]pyrazine]",> 70%
18,"CCOC(F)(F)c1nnc2cnc(-c3ccc(COCC(F)(F)F)cc3C)cn12 [Compound III-5, 3-[ethoxy(difluoro)methyl]-6-[2-methyl-4-(2,2,2-trifluoroethoxymethyl)phenyl]-[1,2,4]triazolo[4,3-a]pyrazine]",30 to 70%
19,"COC(F)(F)c1nnc2cnc(-c3ccc(COCC(F)(F)F)cc3C)cn12 [Compound III-6, 3-[difluoro(methoxy)methyl]-6-[2-methyl-4-(2,2,2-trifluoroethoxymethyl)phenyl]-[1,2,4]triazolo[4,3-a]pyrazine]",30 to 70%
20,"CCOC(F)(F)c1nnc2cnc(-c3ccc(COCC(F)(F)F)cc3)cn12 [Compound III-11, 3-(ethoxydifluoromethyl)-6-(4-((2,2,2-trifluoroethoxy)methyl)phenyl)-[1,2,4]triazolo[4,3-a]pyrazine]",30 to 70%
21,"COCC(F)(F)Oc1ccc(-c2cn3c(C(F)(F)F)nnc3cn2)cc1 [Compound III-12, 6-(4-(1,1-difluoro-2-methoxyethoxy)phenyl)-3-(trifluoromethyl)-[1,2,4]triazolo[4,3-a]pyrazine]",30 to 70%
22,"C[C@@H](Oc1ccc(-c2cn3c(C(F)F)nnc3cn2)cn1)C(F)(F)F [Compound III-13, (R)-3-(difluoromethyl)-6-(6-((1,1,1-trifluoropropan-2-yl)oxy)pyridin-3-yl)-[1,2,4]triazolo[4,3-a]pyrazine]",> 70%
23,"FC(F)(F)c1nnc2cnc(-c3ccc(O[C@@H](C4CC4)C(F)(F)F)nc3)cn12 [Compound III-15, (S)-6-(6-(1-cyclopropyl-2,2,2-trifluoroethoxy)pyridin-3-yl)-3-(trifluoromethyl)-[1,2,4]triazolo[4,3-a]pyrazine]",> 70%
24,"C[C@H](Oc1ccc(-c2cn3c(C(F)F)nnc3cn2)cn1)C(F)(F)F [Compound III-16, (S)-3-(difluoromethyl)-6-(6-((1,1,1-trifluoropropan-2-yl)oxy)pyridin-3-yl)-[1,2,4]triazolo[4,3-a]pyrazine]",> 70%
